According to patent publication US8394825B2, “Compound” (Sterix Limited, priority 2007, dated 2013):

Experiments:
DU145 cells = test: Antiproliferative assay in DU145 cells, WST-1 cell proliferation assay, 96 hours (GI50); assay type: cell-based; details: Homo sapiens, DU-145, 96 hours post-treatment
Summary of the method: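 DU145 cells seeded at 5000 cells/well, treated with […] compound or vehicle for 96 h. Viability read by WST-1, expressed as percent of mean control, GI50 derived; triplicate experiments.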

| SMILES | melting point | GI50 (DU145 cells; triplicate) [µM] | GI50 (DU145 cells; 50% growth inhibition) [µM] |
| --- | --- | --- | --- |
| COc1cc2c(cc1OCc1ccccc1)CCN(S(=O)(=O)c1cccc(Cl)c1)C2=O [compound 199, 6-Benzyloxy-2-(3-chloro-benzenesulfonyl)-7-methoxy-3,4-dihydro-2H-isoquinolin-1-one] | 155 to 158 °C | > 100 |  |
| COc1cccc(CN2CCc3cc(OCc4ccccc4)c(OC)cc3C2)c1 [compound 4, 6-Benzyloxy-7-methoxy-2-(3-methoxybenzyl)-1,2,3,4-tetrahydroisoquinoline] | 71 to 72 °C | 50 to 100 |  |
| COc1cc2c(cc1OCc1ccccc1)CCN(Cc1cccc(Oc3ccccc3)c1)C2 [compound 8, 6-Benzyloxy-7-methoxy-2-(3-phenoxybenzyl)-1,2,3,4-tetrahydroisoquinoline] | 111 to 112 °C | > 100 |  |
| COc1cc2c(cc1OCc1ccccc1)CCN(S(=O)(=O)c1cccc(C(F)(F)F)c1)C2 [compound 172, 6-Benzyloxy-7-methoxy-2-(3-trifluoromethyl-benzenesulfonyl)-1,2,3,4-tetrahydroisoquinoline] | 136 to 138.5 °C | > 100 |  |
| COc1ccc(CN2CCc3cc(OCc4ccccc4)c(OC)cc3C2)cc1 [compound 3, 6-Benzyloxy-7-methoxy-2-(4-methoxybenzyl)-1,2,3,4-tetrahydroisoquinoline] | 96 to 97 °C | 50 to 100 |  |
| COc1ccccc1COc1cc2c(cc1OC)C(=O)N(Cc1ccccc1OC)CC2 [compound 156, 7-Methoxy-2-(2-methoxybenzyl)-6-(2-methoxybenzyloxy)-3,4-dihydro-2H-isoquinolin-1-one] | 133 to 134 °C | > 100 |  |
| COc1cccc(S(=O)(=O)N2CCc3cc(OCc4ccccc4)c(OC)cc3C2)c1 [compound 169, 6-Benzyloxy-7-methoxy-2-(3-methoxy-benzenesulfonyl)-1,2,3,4-tetrahydroisoquinoline] | 124 to 125 °C | > 100 |  |
| COc1cc2c(cc1O)CCN(S(=O)(=O)c1ccccc1C#N)C2 [compound 183, 2-(2-Cyano-benzenesulfonyl)-6-hydroxy-7-methoxy-1,2,3,4-tetrahydroisoquinoline] | 164 to 167 °C | > 100 |  |
| COc1cc2c(cc1OCc1ccccc1)CCN(Cc1cccc(N)c1)C2 [compound 34, 2-(3-Aminobenzyl)-6-(benzyloxy)-7-methoxy-1,2,3,4-tetrahydroisoquinoline] | 114 to 115 °C | > 100 |  |
| COc1ccc(CN2CCc3cc(O)c(OC)cc3C2=O)cc1 [compound 159, 6-Hydroxy-7-methoxy-2-(4-methoxybenzyl)-3,4-dihydroisoquinolin-1(2H)-one] | 171 to 172 °C | > 100 |  |
| COc1cc2c(cc1OCc1ccccc1)CCN(Cc1cccc(C)c1)C2 [compound 7, 6-Benzyloxy-7-methoxy-2-(3-methylbenzyl)-1,2,3,4-tetrahydroisoquinoline] | 81 to 82 °C | > 100 |  |
| COc1cc2c(cc1O)CCN(S(=O)(=O)c1ccccc1OC)C2=O [compound 200, 6-Hydroxy-7-methoxy-2-(2-methoxy-benzenesulfonyl)-3,4-dihydro-2H-isoquinolin-1-one] | 222 to 224 °C | > 100 |  |
| COc1ccccc1CN1CCc2cc(OCc3ccccc3)c(OC)cc2C1 [compound 5, 6-Benzyloxy-7-methoxy-2-(2-methoxybenzyl)-1,2,3,4-tetrahydroisoquinoline] | 85 to 86 °C | 10 to 50 |  |
| COc1cc2c(cc1OCc1ccccc1)CCN(C(=O)c1cccc(C#N)c1)C2=O [compound 135, 6-Benzyloxy-2-(3-cyanobenzoyl)-7-methoxy-3,4-dihydro-2H-isoquinoline-1-one] | 195 to 196 °C | > 100 |  |
| COc1cc2c(cc1OCc1ccccc1)CCN(C(=O)c1ccccc1OC)C2=O [compound 130, 6-Benzyloxy-7-methoxy-2-(2-methoxybenzoyl)-3,4-dihydro-2H-isoquinoline-1-one] | 163 to 164 °C | > 100 |  |
| COc1cccc(CN2Cc3cc(OC)c(O)cc3CC2C)c1 (centres unmarked) [compound 217, 2-(3-Methoxybenzyl)-1,2,3,4-tetrahydro-7-methoxy-3-methylisoquinolin-6-ol] | 100 to 105 °C |  | < 10 |
| COc1ccc(S(=O)(=O)N2CCc3cc(O)c(OC)cc3C2=O)cc1 [compound 202, 6-Hydroxy-7-methoxy-2-(4-methoxy-benzenesulfonyl)-3,4-dihydro-2H-isoquinolin-1-one] | 202 to 204 °C | > 100 |  |
| COc1cc2c(cc1OCc1ccccc1)CCN(S(=O)(=O)c1cccc(OC(F)(F)F)c1)C2 [compound 170, 6-Benzyloxy-7-methoxy-2-(3-trifluoromethoxy-benzenesulfonyl)-1,2,3,4-tetrahydroisoquinoline] | 118 to 120 °C | > 100 |  |

Results, then the compound that gave them:

| melting point | GI50 (DU145 cells; triplicate) [µM] | GI50 (DU145 cells; 50% growth inhibition) [µM] | SMILES |
| --- | --- | --- | --- |
| 198 to 199 °C | < 10 |  | COc1cc(OC)cc(C(=O)N2CCc3cc(O)c(OC)cc3C2=O)c1 [compound 141, 2-(3,5-Dimethoxybenzoyl)-6-hydroxy-7-methoxy-3,4-dihydro-2H-isoquinolin-1-one] |
| 126 to 127 °C | 10 to 50 |  | COc1ccc(C(=O)N2CCc3cc(OCc4ccccc4)c(OC)cc3C2)cc1 [compound 108, 7-Methoxy-2-(4-methoxybenzoyl)-6-benzyloxy-1,2,3,4-tetrahydroisoquinoline] |
| 204 to 206 °C | > 100 |  | COc1cc2c(cc1O)CCN(S(=O)(=O)c1cccc(C#N)c1)C2 [compound 186, 2-(3-Cyano-benzenesulfonyl)-6-hydroxy-7-methoxy-1,2,3,4-tetrahydroisoquinoline] |
| 132 to 133 °C | > 100 |  | COc1cc2c(cc1O)CCN(C(=O)c1ccc(OC)c(OC)c1)C2 [compound 118, 2-(3,4-Dimethoxybenzoyl)-6-hydroxy-7-methoxy-1,2,3,4-tetrahydroisoquinoline] |
| 95 to 96 °C | > 100 |  | COc1cc(CN2CCc3cc(OCc4ccccc4)c(OC)cc3C2)cc(OC)c1 [compound 6, 6-Benzyloxy-2-(3,5-dimethoxybenzyl)-7-methoxy-1,2,3,4-tetrahydroisoquinoline] |
| 175 to 178 °C | > 100 |  | COc1cc2c(cc1O)CCN(S(=O)(=O)c1cccc(Cl)c1)C2 [compound 182, 2-(3-Chloro-benzenesulfonyl)-6-hydroxy-7-methoxy-1,2,3,4-tetrahydroisoquinoline] |
| 152 to 153 °C | < 10 |  | COc1cc2c(cc1O)CCN(Cc1cc(OC)c(OC)cc1OC)C2 [compound 59, 6-Hydroxy-7-methoxy-2-(2,4,5-trimethoxybenzyl)-1,2,3,4-tetrahydroisoquinoline] |
| 199 to 200 °C | < 10 |  | COc1cc2c(cc1O)CCN(C(=O)c1ccccc1OC)C2=O [compound 138, 6-Hydroxy-7-methoxy-2-(2-methoxybenzoyl)-3,4-dihydro-2H-isoquinoline-1-one] |
| > 180 °C (dec.) |  | > 100 | COc1cc(OC)cc(C(=O)N2Cc3cc(OC)c(OS(N)(=O)=O)cc3CC2(C)C)c1 [compound 237, Sulfamic acid 2-(3,5-dimethoxy-benzoyl)-7-methoxy-3,3-dimethyl-1,2,3,4-tetrahydro-isoquinolin-6-yl ester] |
| 173 to 174 °C | > 100 |  | COc1ccc(C(=O)N2CCc3cc(O)c(OC)cc3C2)cc1 [compound 117, 6-Hydroxy-7-methoxy-2-(4-methoxybenzoyl)-1,2,3,4-tetrahydroisoquinoline] |
| 224 to 225 °C | > 100 |  | COc1ccc(C(=O)N2CCc3cc(O)c(OC)cc3C2=O)cc1 [compound 140, 6-Hydroxy-7-methoxy-2-(4-methoxybenzoyl)-3,4-dihydro-2H-isoquinolin-1-one] |
| 127 to 128 °C | > 100 |  | COc1cc2c(cc1O)CCN(Cc1cccc([N+](=O)[O-])c1)C2 [compound 66, 6-Hydroxy-7-methoxy-2-(3-nitrobenzyl)-1,2,3,4-tetrahydroisoquinoline] |
| 172 to 173 °C | < 10 |  | COc1cc2c(cc1O)CCN(C(=O)c1cc(OC)c(OC)c(OC)c1)C2 [compound 120, 6-Hydroxy-7-methoxy-2-(3,4,5-trimethoxybenzoyl)-1,2,3,4-tetrahydroisoquinoline] |
| 110 to 111 °C | 10 to 50 |  | COc1cc(OC)c(OC)cc1CN1CCc2cc(OCc3ccccc3)c(OC)cc2C1 [compound 17, 6-Benzyloxy-7-methoxy-2-(2,4,5-trimethoxybenzyl)-1,2,3,4-tetrahydroisoquinoline] |
| 202 to 203 °C | > 100 |  | COc1cc2c(cc1O)CCN(S(=O)(=O)c1cccc(OC(F)(F)F)c1)C2 [compound 179, 6-Hydroxy-7-methoxy-2-(3-trifluoromethoxy-benzenesulfonyl)-1,2,3,4-tetrahydroisoquinoline] |
| 168 to 170 °C | > 100 |  | COc1cccc(S(=O)(=O)N2CCc3cc(O)c(OC)cc3C2)c1 [compound 178, 6-Hydroxy-7-methoxy-2-(3-methoxy-benzenesulfonyl)-1,2,3,4-tetrahydroisoquinoline] |
| 161 to 162 °C | > 100 |  | COc1cccc(CN2CCc3cc(O)c(OC)cc3C2)c1 [compound 40, 6-Hydroxy-7-methoxy-2-(3-methoxybenzyl)-1,2,3,4-tetrahydroisoquinoline] |
| 181 to 182 °C | > 100 |  | COc1cccc(CN2CCc3cc(O)c(OC)cc3C2=O)c1 [compound 160, 6-Hydroxy-7-methoxy-2-(3-methoxy-benzyl)-3,4-dihydro-2H-isoquinolin-1-one] |
| 106 to 107 °C | 10 to 50 |  | COc1cc2c(cc1OCc1ccccc1)CCN(Cc1cccc(OC)c1OC)C2 [compound 20, 6-Benzyloxy-7-methoxy-2-(2,3-dimethoxybenzyl)-1,2,3,4-tetrahydroisoquinoline] |
